The NIST ThermoML archive (doi:10.1016/j.jct.2017.04.015)
± gives the expanded uncertainty stated by the source.

Test: mn = molality of the nth substance listed, in mol/kg
Conditions: 101.3 kPa, Liquid; for speed of sound: Frequency=2 MHz, Linear variable-path acoustic interferometer; for mass density: Pycnometric method

CCN(CC)CCOC(=O)c1ccc(N)cc1.Cl [2-diethylaminoethyl p-aminobenzoate hydrochloride] + O
Conditions	mass density [kg/m3]	speed of sound [m/s]
288.15 K, m1 = 0.01	999.6 ± 1.5	1467.5 ± 2.5
288.15 K, m1 = 0.02	1000.1 ± 1.5	1469.1 ± 2.5
288.15 K, m1 = 0.0301	1000.6 ± 1.5	1470.7 ± 2.5
288.15 K, m1 = 0.04	1001.1 ± 1.5	1472.3 ± 2.5
288.15 K, m1 = 0.05	1001.6 ± 1.5	1473.9 ± 2.5
288.15 K, m1 = 0.055	1001.85 ± 1.5	1474.7 ± 2.5
288.15 K, m1 = 0.0599	1002.09 ± 1.5	1475.4 ± 2.5
288.15 K, m1 = 0.065	1002.34 ± 1.5	1476.2 ± 2.5
288.15 K, m1 = 0.0701	1002.6 ± 1.5	1477 ± 2.5
288.15 K, m1 = 0.0751	1002.85 ± 1.5	1477.7 ± 2.5
288.15 K, m1 = 0.0801	1003.1 ± 1.5	1478.5 ± 2.5
288.15 K, m1 = 0.0852	1003.35 ± 1.5	1479.2 ± 2.5
288.15 K, m1 = 0.0898	1003.58 ± 1.5	1480 ± 2.5
288.15 K, m1 = 0.0952	1003.85 ± 1.5	1480.7 ± 2.5
288.15 K, m1 = 0.1	1004.09 ± 1.5	1481.4 ± 2.6
298.15 K, m1 = 0.0098	997.52 ± 1.5	1498.3 ± 2.5
298.15 K, m1 = 0.0196	997.99 ± 1.5	1499.9 ± 2.5
298.15 K, m1 = 0.0297	998.49 ± 1.5	1501.5 ± 2.5
298.15 K, m1 = 0.0406	999.02 ± 1.5	1503.2 ± 2.5
298.15 K, m1 = 0.0492	999.44 ± 1.5	1504.6 ± 2.5
298.15 K, m1 = 0.0534	999.65 ± 1.5	1505.3 ± 2.5
298.15 K, m1 = 0.061	1000.02 ± 1.5	1506.5 ± 2.5
298.15 K, m1 = 0.0636	1000.15 ± 1.5	1506.9 ± 2.5
298.15 K, m1 = 0.0688	1000.4 ± 1.5	1507.7 ± 2.5
298.15 K, m1 = 0.0758	1000.74 ± 1.5	1508.8 ± 2.5
298.15 K, m1 = 0.0783	1000.86 ± 1.5	1509.2 ± 2.5
298.15 K, m1 = 0.0846	1001.17 ± 1.5	1510.2 ± 2.5
298.15 K, m1 = 0.09	1001.44 ± 1.5	1511 ± 2.5
298.15 K, m1 = 0.0951	1001.68 ± 1.5	1511.7 ± 2.5
298.15 K, m1 = 0.1003	1001.94 ± 1.5	1512.5 ± 2.6
308.15 K, m1 = 0.01	994.51 ± 1.5	1521.4 ± 2.5
308.15 K, m1 = 0.02	995 ± 1.5	1523 ± 2.5
308.15 K, m1 = 0.03	995.48 ± 1.5	1524.6 ± 2.5
308.15 K, m1 = 0.0401	995.97 ± 1.5	1526.2 ± 2.5
308.15 K, m1 = 0.0499	996.44 ± 1.5	1527.8 ± 2.5
308.15 K, m1 = 0.055	996.69 ± 1.5	1528.6 ± 2.5
308.15 K, m1 = 0.06	996.93 ± 1.5	1529.4 ± 2.5
308.15 K, m1 = 0.065	997.17 ± 1.5	1530.1 ± 2.5
308.15 K, m1 = 0.0698	997.4 ± 1.5	1530.9 ± 2.5
308.15 K, m1 = 0.075	997.65 ± 1.5	1531.7 ± 2.5
308.15 K, m1 = 0.0801	997.9 ± 1.5	1532.5 ± 2.5
308.15 K, m1 = 0.085	998.14 ± 1.5	1533.2 ± 2.5
308.15 K, m1 = 0.09	998.38 ± 1.5	1534 ± 2.5
308.15 K, m1 = 0.095	998.62 ± 1.5	1534.7 ± 2.5
308.15 K, m1 = 0.1	998.86 ± 1.5	1535.4 ± 2.5

[Cl-].[K+] [potassium chloride] + O
Conditions	mass density, 288.15 K [kg/m3]	mass density, 298.15 K [kg/m3]	mass density, 308.15 K [kg/m3]	speed of sound, 288.15 K [m/s]	speed of sound, 298.15 K [m/s]	speed of sound, 308.15 K [m/s]
m1 = 0.06	1002.26 ± 1.5	1000.42 ± 1.5	997.25 ± 1.5	1467.4 ± 2.5	1498.3 ± 2.5	1522.2 ± 2.5
m1 = 0.1	1003.48 ± 1.5	1001.79 ± 1.5	998.71 ± 1.5	1469.6 ± 2.5	1502.5 ± 2.5	1525.1 ± 2.5
